Results: US7700577B2, “Carbohydrate based anti-bacterials” (Alchemia Limited, priority 2002, dated 2010)

Tests used:
S. aureus = experiment: MIC testing, broth microdilution (NCCLS), S. aureus; assay type: cell-based, Staphylococcus aureus; conditions: for SA24 (MIC): S. aureus after 24 hours exposure; for SA48 (MIC): S. aureus after 48 hours exposure
Excerpt: (§1) The broth microdilution format of the National Committee for Clinical Laboratory Standards (NCCLS) approved standard for susceptibility tests as outlined in M7-A4 “methods for dillution Antimicrobial susceptibility tests for bacteria that grow aerobically; approved standard—fifth edition”, January 2000 was utilized for minimum inhibitory concentration testing in Mueller-Hinton broth. The broth for Streptococcus pyogenes testing was supplemented with 2% laked horse blood. A positive result in initial testing was determined by complete inhibition of macroscopic bacterial growth at a concentration of 128 micrograms per mL after incubation for 16 to 24 hours at 37 degrees C. In the case of Micrococcus luteus, incubation was at 30 degrees C. […] Bacterial Types Are: • SA24 S. aureus after 24 hours exposure • SA48 S. aureus after 48 hours exposure • EC24 E. coli after 24 hours exposure

E. coli = experiment: MIC testing, broth microdilution (NCCLS), E. coli; assay type: cell-based; conditions: E. coli after 24 hours exposure
Excerpt: as §1

Row | SMILES | SA24 (MIC) (S. aureus) | SA48 (MIC) (S. aureus) | EC24 (MIC) (E. coli)
1 | CCCCCCCCCCC(=O)NC1C(CO)OCC(NC(=O)Nc2cccc(C(F)(F)F)c2)C1OC1OC(CO)C(O)C(O)C1NC(=O)OCc1ccccc1 (centres unmarked) [compound 78] | + (+ indicates an MIC value of less than 128 micrograms per mL) |  | 
2 | N=C(Nc1cccc(C(F)(F)F)c1)NC1[C@H](O[C@@H]2C(NC(=N)Nc3cccc(C(F)(F)F)c3)COC(CO)[C@@H]2NC(=O)c2ccc(-c3ccccc3)cc2)OC(CO)[C@@H](O)[C@@H]1O (some centres unmarked) [compound 16] | + (+ indicates an MIC value of less than 128 micrograms per mL) | + (+ indicates an MIC value of less than 128 micrograms per mL) | + (+ indicates an MIC value of less than 128 micrograms per mL)
3 | O=C(Cc1ccc(C(F)(F)F)cc1)NC1COC(CO)C(NC(=O)c2ccc(-c3ccccc3)cc2)C1OC1OC(CO)C(O)C(O)C1NC(=O)Nc1cccc(C(F)(F)F)c1 (centres unmarked) [compound 7] | + (+ indicates an MIC value of less than 128 micrograms per mL) | + (+ indicates an MIC value of less than 128 micrograms per mL) | − (− indicates an MIC of greater then 128 micrograms per mL)
4 | Cc1ccc(S(=O)(=O)NC2C(OC3C(NC(=N)Nc4cccc(C(F)(F)F)c4)COC(CO)C3NC(=O)c3ccc(-c4ccccc4)cc3)OC(CO)C(O)C2O)cc1 (centres unmarked) [compound 12] | + (+ indicates an MIC value of less than 128 micrograms per mL) | + (+ indicates an MIC value of less than 128 micrograms per mL) | + (+ indicates an MIC value of less than 128 micrograms per mL)
5 | O=C(Cc1cccc(C(F)(F)F)c1)NC1COC(CO)C(NC(=O)c2ccc(-c3ccccc3)cc2)C1OC1OC(CO)C(O)C(O)C1NC(=O)Cc1cccc(C(F)(F)F)c1 (centres unmarked) [compound 2] | + (+ indicates an MIC value of less than 128 micrograms per mL) | + (+ indicates an MIC value of less than 128 micrograms per mL) | − (− indicates an MIC of greater then 128 micrograms per mL)
6 | CCCCCCCCOc1ccc(C(=O)NC2C(CO)OCC(NC(=O)Nc3cccc(C(F)(F)F)c3)C2OC2OC(CO)C(O)C(O)C2NC(=O)Nc2cccc(C(F)(F)F)c2)cc1 (centres unmarked) [compound 64] | + (+ indicates an MIC value of less than 128 micrograms per mL) | + (+ indicates an MIC value of less than 128 micrograms per mL) | 
7 | Cc1ccc(S(=O)(=O)NC2[C@H](O[C@@H]3C(NC(=O)Nc4cccc(C(F)(F)F)c4)COC(CO)[C@@H]3N)OC(CO)[C@@H](O)[C@@H]2O)cc1 (some centres unmarked) [compound 50] | + (+ indicates an MIC value of less than 128 micrograms per mL) |  | 
8 | Cc1ccc(S(=O)(=O)NC2COC(CO)[C@H](NC(=O)c3ccc(-c4ccccc4)cc3)[C@@H]2O[C@@H]2OC(CO)[C@@H](O)[C@H](O)C2NC(=O)Nc2cccc(C(F)(F)F)c2)cc1 (some centres unmarked) [compound 39] | + (+ indicates an MIC value of less than 128 micrograms per mL) | + (+ indicates an MIC value of less than 128 micrograms per mL) | − (− indicates an MIC of greater then 128 micrograms per mL)
9 | Cc1ccc(NC(=N)NC2[C@H](O[C@@H]3C(NC(=O)Nc4cccc(C(F)(F)F)c4)COC(CO)[C@@H]3N)OC(CO)[C@@H](O)[C@@H]2O)cc1 (some centres unmarked) [compound 47] | + (+ indicates an MIC value of less than 128 micrograms per mL) |  | 
10 | CCCCCC(C)CCC(=O)N[C@H]1C(CO)OCC(NC(=N)Nc2cccc(C(F)(F)F)c2)[C@H]1O[C@@H]1OC(CO)[C@@H](O)[C@H](O)C1NC(=N)Nc1cccc(C(F)(F)F)c1 (some centres unmarked) [compound 19] | + (+ indicates an MIC value of less than 128 micrograms per mL) | + (+ indicates an MIC value of less than 128 micrograms per mL) | + (+ indicates an MIC value of less than 128 micrograms per mL)
11 | O=C(Nc1cccc(C(F)(F)F)c1)NC1COC(CO)[C@H](NC(=O)c2ccc(-c3ccccc3)cc2)[C@@H]1O[C@@H]1OC(CO)[C@@H](O)[C@H](O)C1NC(=O)OCc1ccccc1 (some centres unmarked) [compound 44] | + (+ indicates an MIC value of less than 128 micrograms per mL) | + (+ indicates an MIC value of less than 128 micrograms per mL) | 
12 | O=C(Nc1cccc(C(F)(F)F)c1)NC1C(OC2C(NC(=O)OCc3ccccc3)COC(CO)C2NC(=O)c2ccc(-c3ccccc3)cc2)OC(CO)C(O)C1O (centres unmarked) [compound 8] | + (+ indicates an MIC value of less than 128 micrograms per mL) | + (+ indicates an MIC value of less than 128 micrograms per mL) | − (− indicates an MIC of greater then 128 micrograms per mL)
13 | CCCCCC(C)CCC(=O)N[C@H]1C(CO)OCC(NC(=O)Nc2cccc(C(F)(F)F)c2)[C@H]1O[C@@H]1OC(CO)[C@@H](O)[C@H](O)C1NC(=O)Nc1cccc(C(F)(F)F)c1 (some centres unmarked) [compound 55] | + (+ indicates an MIC value of less than 128 micrograms per mL) | + (+ indicates an MIC value of less than 128 micrograms per mL) | 
14 | CC(C)=CCCC(C)=CCN[C@H]1C(CO)OCC(NC(=N)Nc2cccc(C(F)(F)F)c2)[C@H]1O[C@@H]1OC(CO)[C@@H](O)[C@H](O)C1NC(=N)Nc1cccc(C(F)(F)F)c1 (some centres unmarked) [compound 23] | + (+ indicates an MIC value of less than 128 micrograms per mL) | + (+ indicates an MIC value of less than 128 micrograms per mL) | + (+ indicates an MIC value of less than 128 micrograms per mL)
15 | CCCCCCCCCCC(=O)NC1C(CO)OCC(NC(=O)NCCCC)C1OC1OC(CO)C(O)C(O)C1NS(=O)(=O)c1ccc(C)cc1 (centres unmarked) [compound 80] | + (+ indicates an MIC value of less than 128 micrograms per mL) |  | 
16 | CCCCCN(CCCCC)C1C(CO)OCC(NC(=O)Nc2cccc(C(F)(F)F)c2)C1OC1OC(CO)C(O)C(O)C1NC(=O)Nc1cccc(C(F)(F)F)c1 (centres unmarked) [compound 60] | + (+ indicates an MIC value of less than 128 micrograms per mL) | + (+ indicates an MIC value of less than 128 micrograms per mL) | 
17 | O=C(Nc1cccc(C(F)(F)F)c1)NC1C(OC2C(NC(=O)c3cccc(C(F)(F)F)c3)COC(CO)C2NC(=O)c2ccc(-c3ccccc3)cc2)OC(CO)C(O)C1O (centres unmarked) [compound 5] | + (+ indicates an MIC value of less than 128 micrograms per mL) | + (+ indicates an MIC value of less than 128 micrograms per mL) | − (− indicates an MIC of greater then 128 micrograms per mL)
18 | N=C(Nc1cccc(C(F)(F)F)c1)NC1[C@H](O[C@@H]2C(NC(=N)Nc3cccc(C(F)(F)F)c3)COC(CO)[C@@H]2NCc2ccc(-c3ccccc3)cc2)OC(CO)[C@@H](O)[C@@H]1O (some centres unmarked) [compound 20] | + (+ indicates an MIC value of less than 128 micrograms per mL) | + (+ indicates an MIC value of less than 128 micrograms per mL) | + (+ indicates an MIC value of less than 128 micrograms per mL)
19 | O=C(Nc1cccc(C(F)(F)F)c1)NC1[C@H](O[C@@H]2C(NS(=O)(=O)c3cccc(C(F)(F)F)c3)COC(CO)[C@@H]2NC(=O)c2ccc(-c3ccccc3)cc2)OC(CO)[C@@H](O)[C@@H]1O (some centres unmarked) [compound 37] | + (+ indicates an MIC value of less than 128 micrograms per mL) | + (+ indicates an MIC value of less than 128 micrograms per mL) | − (− indicates an MIC of greater then 128 micrograms per mL)
20 | O=C(/C=C/c1ccc(Cl)cc1)N[C@H]1C(CO)OCC(NC(=O)Nc2cccc(C(F)(F)F)c2)[C@H]1O[C@@H]1OC(CO)[C@@H](O)[C@H](O)C1NC(=O)Nc1cccc(C(F)(F)F)c1 (some centres unmarked) [compound 58] | + (+ indicates an MIC value of less than 128 micrograms per mL) | + (+ indicates an MIC value of less than 128 micrograms per mL) | 
21 | CCCCCCCCCCC(=O)NC1C(CO)OCC(NC(=O)Nc2cccc(C(F)(F)F)c2)C1OC1OC(CO)C(O)C(O)C1NS(=O)(=O)c1ccc(C)cc1 (centres unmarked) [compound 79] | + (+ indicates an MIC value of less than 128 micrograms per mL) |  | 
22 | O=C(Nc1cccc(C(F)(F)F)c1)NC1COC(CO)[C@H](NC(=O)c2ccc(-c3ccccc3)cc2)[C@@H]1O[C@@H]1OC(CO)[C@@H](O)[C@H](O)C1NS(=O)(=O)c1cccc(C(F)(F)F)c1 (some centres unmarked) [compound 48] | + (+ indicates an MIC value of less than 128 micrograms per mL) | + (+ indicates an MIC value of less than 128 micrograms per mL) | − (− indicates an MIC of greater then 128 micrograms per mL)
23 | NC1[C@H](O[C@@H]2C(NC(=O)Nc3cccc(C(F)(F)F)c3)COC(CO)[C@@H]2NC(=O)c2ccc(-c3ccccc3)cc2)OC(CO)[C@@H](O)[C@@H]1O (some centres unmarked) [compound 43] | + (+ indicates an MIC value of less than 128 micrograms per mL) |  | 
24 | N[C@H]1C(CO)OCC(NC(=O)Nc2cccc(C(F)(F)F)c2)[C@H]1O[C@@H]1OC(CO)[C@@H](O)[C@H](O)C1NC(=O)OCc1ccccc1 (some centres unmarked) [compound 45] | + (+ indicates an MIC value of less than 128 micrograms per mL) |  | 
25 | Cc1ccc(S(=O)(=O)NC2[C@H](O[C@@H]3C(NC(=N)Nc4cccc(C(F)(F)F)c4)COC(CO)[C@@H]3N)OC(CO)[C@@H](O)[C@@H]2O)cc1 (some centres unmarked) [compound 13] | + (+ indicates an MIC value of less than 128 micrograms per mL) |  | 
26 | O=C(N[C@H]1C(CO)OCC(NS(=O)(=O)c2cccc(C(F)(F)F)c2)[C@H]1O[C@@H]1OC(CO)[C@@H](O)[C@H](O)C1NS(=O)(=O)c1cccc(C(F)(F)F)c1)c1ccc(-c2ccccc2)cc1 (some centres unmarked) [compound 36] | + (+ indicates an MIC value of less than 128 micrograms per mL) | + (+ indicates an MIC value of less than 128 micrograms per mL) | 
